Data reported in patent publication US20050222266A1, “2-indanylamino derivatives for the therapy of chronic pain” (priority 2002, published 2005).
Counter-ions that a name gives are not always drawn.

How the values were obtained:
[1] = tested on: acute pain, hot plate 55° C.; test: hot-plate test, mice; type: in vivo; conditions: 15 min
Description: The effect of CHF 3381 was studied in acute pain with hot-plate test described by Eddy et al (1953). The test was performed on an electrically heated and thermostatically controlled copper surface, set to a temperature of 55 or 51° C. with mice and rats, respectively.
The animals were confined to the hot plate by a transparent observation chamber and the latency to the response consisting of licking of the hind paws, was measured. A cut-off period of 60 sec was used to avoid tissue damage.
After i.p. administration, CHF 3381 (30-45-60 and 100 mg/kg in mouse; 30-37-45 and 60 mg/kg in rats), produced a significant and dose-dependent increase in the latency of the hindpaw licking response compared to vehicle-treated animals (Table 6).

[2] = tested on: formalin-induced licking and flinching; test: mouse formalin test, 9 day treatment (tolerance); type: in vivo, mice
Description: The mice paw formalin test was performed as described by Wheeler-Aceto et al. (Psychopharmacology 104:35-44, 1991). Briefly, the day before the formalin injection, mice were placed individually into clear plastic cylinders for 30 minutes of adaptation. The day of testing 20 μl of 1% formalin was injected into the plantar surface of the left hind paw and the animals were again placed into the plastic cylinder for the behavioural observation. The amount of time, in seconds, the animals spent licking and flinching (L/F) the injected paw for the first 5 min (early phase), and then from 10 to 40 min(late phase) after formalin injection, was used as measurement of intensity of pain. CHF 3381 10-100 mg/kg i.p. and 25-200 mg/kg p.o. or the corresponding vehicles, were administered 15 and 30 min before formalin injection, respectively.
Moreover, the formalin test was used to examine whether tolerance develops with respect to the antihyperalgesic effect of CHF 3381 after chronic treatment in comparison with the standard opioid morphine. Briefly, mice were divided randomly into five groups (12 mice per group) and administered once daily for 8 days as follows: three groups with saline i.p., one group with CHF 3381 60 mg/kg i.p. and one group with morphine 20 mg/kg i.p. On ninth day these groups were treated in following way: one saline pre-treated group was treated with saline i.p. (g1); two saline pre-treated group were treated with CHF 3381 30 mg/kg i.p. (g2) and with morphine 6 mg/kg i.p. (g3), respectively; the group pre-treated with CHF 3381 60 mg/kg was treated with CHF 3381 30 mg/kg i.p. (g4) and the group pre-treated with morphine 20 mg/kg was treated with morphine 6 mg/kg i.p.(g5), a dose that was previously shown to be active in the formalin test. CHF 3381 and morphine were administered 15 and 30 min before formalin injection, respectively.

[3] = G2: 30 mg/kg i.p. on ninth day after 8 days saline
[4] = G4: 30 mg/kg i.p. on ninth day after 8 days CHF 3381 60 mg/kg i.p.

NC(=O)CNC1Cc2ccccc2C1 [CHF 3381, N-2(indanyl)-glicinamide hydrochloride]
latency of the hindpaw licking response ([1]; 30 mg/kg i.p.): 19.40 ± 1.37 s
latency of the hindpaw licking response ([1]; 45 mg/kg i.p.): 20.16 ± 1.73 s
latency of the hindpaw licking response ([1]; 60 mg/kg i.p.): 26.95 ± 2.45 s
latency of the hindpaw licking response ([1]; 100 mg/kg i.p.): 37.71 ± 3.17 s
Early phase [2, 3]: 53 ± 8 s
Late phase [2, 3]: 91 ± 21 s
Early phase [2, 4]: 56 ± 6 s
Late phase [2, 4]: 74 ± 21 s
antihyperalgesic action after chronic treatment (tolerance) ([2]; once daily for 8 days, test on ninth day): lack of development of tolerance
